Assay results reported in US9586986B2, “Substituted 7-deazapurine ribonucleosides for therapeutic uses” (Institute of Organic Chemistry and Biochemistry ASCR, v.v.i., priority 2014, dated 2017).

How the values were obtained:
[1] = tested on: HL60; test: XTT cytotoxicity assay, HL-60; assay type: cell-based; conditions: Homo sapiens, HL-60; 72 h incubation; read-out: XTT, IC50 HL60
In short: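 Cells seeded at 10,000 per well, compounds added after 24 h and incubated 72 h, then XTT (with N-methyl dibenzopyrazine methyl sulfate) for 2 h; absorbance at 495 nm. IC50 by non-linear regression.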

[2] = tested on: HepG2; test: XTT cytotoxicity assay, HepG2; assay type: cell-based; conditions: Homo sapiens, HepG2; 72 h incubation; read-out: XTT, IC50 HepG2
In short: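 HepG2 cells seeded at 10,000/well, compounds added after 24 h and incubated 72 h at 37 °C, 5% CO2. Viability by XTT reduction (1 mg/mL XTT plus electron coupler), absorbance at 495 nm after 2 h; IC50 by non-linear regression.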

[3] = tested on: CCRF-CEM cells; test: BrU incorporation analysis (RNA synthesis); assay type: cell-based, human; conditions: CCRF-CEM cells treated at IC50 for 24 hrs
Method: Cells were cultured and treated as for cell cycle analysis. Before harvesting, they were pulse-labelled with 1 mM 5-bromouridine (BrU) for 30 min. The cells were fixed in 1% buffered paraformaldehyde with 0.05% of NP-40, incubated in room temperature for 15 min and than in the fridge overnight. They were then washed in 1% glycin in PBS, washed in PBS and stained with primary anti-BrdU antibody crossreacting to BrU (Exbio) for 30 min at room temperature in the dark. Cells were than washed with PBS and stained with secondary anti-mouse-FITC antibody (Sigma). Following the staining the cells are washed with PBS and fixed with 1% PBS buffered paraformaldehyde with 0.05% of NP-40. The cells were then washed with PBS, incubated with propidium iodide (0.1 mg/mL) and RNAse A (0.5 mg/mL) for 1 h at room temperature in the dark, and finally analyzed by flow cytometry using a 488 nm single-beam laser (FACSCalibur, Becton Dickinson).
(§1) However, the major mechanism of action was inhibition of RNA synthesis (BrU incorporation). […] Cell cycle alterations (G1, S, G2/M) were not observed in treated cells under specified experimental conditions.

[4] = tested on: CCRF-CEM cells; test: BrdU incorporation analysis (DNA synthesis); assay type: cell-based, human; conditions: CCRF-CEM cells treated at IC50 for 24 hrs
Method: Cells were cultured as for cell cycle analysis. Before harvesting, they were pulse-labelled with 10 M 5-bromo-2′-deoxyuridine (BrdU) for 30 min. The cells were trypsinized, fixed with ice-cold 70% ethanol, incubated on ice for 30 min, washed with PBS, and resuspended in 2 M HCl for 30 min at room temperature to denature their DNA. Following neutralization with 0.1 M Na2B4O7, the cells were washed with PBS containing 0.5% Tween-20 and 1% BSA. They were then stained with primary anti-BrdU antibody (Exbio) for 30 min at room temperature in the dark. Cells were than washed with PBS and stained with secondary anti-mouse-FITC antibody (Sigma). The cells were then washed with PBS, incubated with propidium iodide (0.1 mg/mL) and RNAse A (0.5 mg/mL) for 1 h at room temperature in the dark, and finally analyzed by flow cytometry using a 488 nm single-beam laser (FACSCalibur, Becton Dickinson).
as §1

[5] = tested on: CCRF-CEM cells; test: Cell cycle and apoptosis analysis (flow cytometry, propidium iodide); assay type: cell-based, human
Method: (§2) After the incubation period, cells were then washed with cold 1×PBS and fixed in 70% ethanol added dropwise and stored overnight at −20° C. Afterwards, cells were washed in hypotonic citrate buffer, treated with RNase (50 μg/mL) and stained with propidium iodide. Flow cytometry using a 488 nm single-beam laser (Becton Dickinson) was used for measurement. The data were analyzed according to the program ModFitLT (Verity), and apoptosis was expressed as the percentage of cells with a propidium content lower than that in the G0/G1 population. Half of the sample was used for pH3^ser10 antibody (Sigma) labeling and subsequent flow cytometry analysis of mitotic cells.
as §1

[6] = tested on: CCRF-CEM cells; test: Mitotic cells, pH3Ser10 antibody labeling (flow cytometry); assay type: cell-based, human; conditions: CCRF-CEM cells treated at IC50 for 24 hrs
Method: as §2, §1

[7] = CCRF-CEM cells treated at IC50 for 24 hrs

## COc1ncnc2c1c(-c1ccsc1)cn2[C@@H]1O[C@H](CO)[C@@H](O)[C@H]1O [Compound 1d, 4-Methoxy-7-(β-D-ribofuranosyl)-5-(thiophen-3-yl)-7H-pyrrolo[2,3-d]pyrimidine]
[1]
  IC50: 130 nM
[2]
  IC50: 430 nM
other
  melting point: 169 to 171 °C
[3]
  BrU+ (RNA synthesis), % of total cell populations: 0.5%
[4]
  BrdU+ (DNA synthesis), % of total cell populations: 44.4%
[5]; [7]
  G1, % of total cell populations: 40.8%
  G2/M, % of total cell populations: 12.7%
  S, % of total cell populations: 46.5%
  sub-G1 (apoptosis), % of total cell populations: 75%
[5]; CCRF-CEM, IC50, 24 hours
  apoptosis induction in words: major apoptosis
[6]
  pH3Ser10+ (mitosis), % of total cell populations: 2.9%
